# Reference: patent publication US8663912B2, “Fluorogenic substrate for ADAMTS13” (Washington University, priority 2011, dated 2014)
# “And” between values parts separate entries of the source, which are not always exact repeats. Equal values may be shown once. * marks the point of attachment. X1 = CC1(C)C(/C=C/C2=C(Cl)C(=C/C=C3/N(CCCCCC(=O)*)c4ccc5cc(S(=O)(=O)O)ccc5c4C3(C)C)/CCC2)=[N+](CCCS(=O)(=O)[O-])c2ccc(N(CCCS(=O)(=O)O)CCCS(=O)(=O)O)cc21; X2 = CC(C)(C)c1cc(/C=C/C=C2\N(CCCS(=O)(=O)O)c3ccc(S(=O)(=O)O)cc3C2(C)CCCC(=O)CCN2C(=O)CC(*)C2=O)c2ccc(N(CCCS(=O)(=O)[O-])CCCS(=O)(=O)O)cc2[o+]1
# Experiments:
# [1] = target: T1, ADAMTS13 (Homo sapiens, UniProt Q76LX8); assay: Fluorogenic ADAMTS13 activity assay, signal and sensitivity compared between substrates; type: biochemical; set-up: from tissue; host or cells: human plasma (TTP patients, healthy controls)
# T1 sequence (Q76LX8 75-1427): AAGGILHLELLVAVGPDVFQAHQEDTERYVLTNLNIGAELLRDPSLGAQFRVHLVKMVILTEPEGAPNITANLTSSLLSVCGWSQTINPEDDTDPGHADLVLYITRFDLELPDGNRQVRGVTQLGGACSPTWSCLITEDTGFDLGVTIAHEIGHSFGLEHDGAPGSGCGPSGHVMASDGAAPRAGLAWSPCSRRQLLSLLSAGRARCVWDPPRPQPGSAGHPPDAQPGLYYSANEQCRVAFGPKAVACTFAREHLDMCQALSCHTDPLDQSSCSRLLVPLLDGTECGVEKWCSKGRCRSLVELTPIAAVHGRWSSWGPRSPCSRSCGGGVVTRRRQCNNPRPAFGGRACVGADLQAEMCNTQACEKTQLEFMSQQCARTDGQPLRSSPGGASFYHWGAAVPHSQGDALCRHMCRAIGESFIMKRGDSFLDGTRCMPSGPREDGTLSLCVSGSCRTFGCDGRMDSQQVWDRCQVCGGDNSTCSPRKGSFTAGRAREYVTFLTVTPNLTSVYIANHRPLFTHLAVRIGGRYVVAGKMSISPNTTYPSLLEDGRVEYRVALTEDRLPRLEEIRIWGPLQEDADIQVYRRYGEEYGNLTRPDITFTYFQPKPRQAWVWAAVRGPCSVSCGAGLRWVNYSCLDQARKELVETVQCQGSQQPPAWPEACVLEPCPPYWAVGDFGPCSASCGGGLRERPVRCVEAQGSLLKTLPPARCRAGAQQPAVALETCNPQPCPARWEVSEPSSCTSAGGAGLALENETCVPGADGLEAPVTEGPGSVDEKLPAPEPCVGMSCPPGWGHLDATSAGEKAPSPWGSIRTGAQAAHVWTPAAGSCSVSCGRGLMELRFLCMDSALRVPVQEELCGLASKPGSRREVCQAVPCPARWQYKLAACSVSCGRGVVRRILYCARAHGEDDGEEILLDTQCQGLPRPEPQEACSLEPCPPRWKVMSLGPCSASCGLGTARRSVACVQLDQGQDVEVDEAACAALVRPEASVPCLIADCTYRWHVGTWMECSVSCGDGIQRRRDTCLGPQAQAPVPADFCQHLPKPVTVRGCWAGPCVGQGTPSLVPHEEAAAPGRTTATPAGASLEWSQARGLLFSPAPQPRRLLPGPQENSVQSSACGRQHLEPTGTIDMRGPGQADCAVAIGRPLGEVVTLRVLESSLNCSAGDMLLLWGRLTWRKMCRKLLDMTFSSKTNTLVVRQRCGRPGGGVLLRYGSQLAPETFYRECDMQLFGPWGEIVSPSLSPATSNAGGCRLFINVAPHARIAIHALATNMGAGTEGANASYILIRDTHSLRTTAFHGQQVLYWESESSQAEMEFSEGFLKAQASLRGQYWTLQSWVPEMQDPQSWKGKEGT
# Description: In these experiments, the FRETS-rVWF71 substrate was utilized in a microtiter format (FIG. 2), which is compatible with fluorescence plate readers that are supported by laboratory equipment suppliers and available in many clinical hemostasis laboratories, such as the BIO-TEK FLx800 Fluorometer from DiaPharma (West Chester, Ohio) or Technoclone (Vienna). Reactions were performed in 200 μL 5 mM Bis-Tris, pH 6, 25 mM CaCl2, at room temperature with added plasma as shown (FIG. 2). Fluorescence was monitored in a Victor^2 V microplate reader (Perkin Elmer Life Sciences, Boston, Mass.) with 638 nm excitation filter and 658 nm emission filter.
# Using 1 μM substrate with varying amounts of plasma or serum and optimal filters for each substrate, ΔF/min for VWF-rFRETS71 is 8-fold greater compared to VWF-FRETS73. In addition, assays with VWF-rFRETS71 are linear with time and linear with enzyme up to >95% serum or plasma added, with no significant background fluorescence or interference from blood constituents. The combination of stronger fluorescence signal and compatibility with undiluted plasma make FRETS-rVWF71 ˜250-fold more sensitive than FRETS-VWF73.
# Assays were performed at 30° C. Samples (100 μL) of plasma or serum, diluted as necessary in assay buffer, were pipetted in duplicate in 96 well white microplates (Optiplate-96, PerkinElmer, Waltham, Mass.). Reaction was initiated by addition of 100 μL substrate in assay buffer. Cleavage of FRETS-rVWF71 was detected as an increase in fluorescence compared to control reactions without added enzyme at 2 min intervals using a Victor^2V Multilabel Counter (PerkinElmer, Waltham, Mass.) or Synergy H1 Hybrid Multi-Mode Microplate Reader (Biotek, Winooski, Vt.) equipped with 635±10 nm excitation and 660±10 nm emission filters. Initial velocities were determined by fitting progress curves to the polynomial ΔF=A+Bt+Ct^2, where ΔF is the change in fluorescence, t is time, A is the y-intercept, B is the initial velocity (slope), and the term Ct^2 accounts for any decline in velocity due to substrate consumption or photobleaching.
# ADAMTS13 assays with the FRETS-VWF73 substrate (Kokame, K., et al. Br. J. Haematol. 129:93-100, 2005) (Peptide International, Louisville, Ky.) were performed according to the manufacturer's instructions. Hemoglobin was prepared by hypotonic lysis of red blood cells from a voluntary donor and quantified with Drabkin's reagent (Sigma, St. Louis, Mo.).
# Results with FRETS-rVWF71 and FRETS-VWF73 assayed under standard conditions (Kokame, K., et al. Br. J. Haematol. 129:93-100, 2005) correlated well with an inter-assay CV of 3.8%. Using 1 μM substrate and 5 μL PNP, the change in fluorescence (ΔF/min) for FRETS-rVWF71 (50 mM HEPES, pH 7.4, 150 mM NaCl) was 8-fold greater than for FRETS-VWF73 (5 mM Bis-Tris, pH 6).
# [2] = target: T1, ADAMTS13; assay: Effect of bilirubin and hemoglobin on FRETS-rVWF71 ADAMTS13 assays; type: biochemical; set-up: FRETS-rVWF71 cleavage by plasma ADAMTS13 (50 μL) was assessed in 200 μL reactions; from tissue; host or cells: human plasma or serum (pooled normal plasma, healthy donors, TTP patients); conditions: >20 mg/dL (250 μM) conjugated bilirubin
substance,measurement,setting,value
X1-GQAPNLVYMVTGC(X2)PASDEIRRLPGDIQVVPIGVGPNANVQELERIGWPNAPILIQDFETLPREAPDLVLQR [FRETS-rVWF71],change in fluorescence (ΔF/min) greater than for FRETS-VWF73,"[1]; 1 μM substrate, 5 μL PNP, FRETS-rVWF71 in 50 mM HEPES pH 7.4, 150 mM NaCl, FRETS-VWF73 in 5 mM Bis-Tris pH 6",8 fold
same,ΔF/min greater compared to FRETS-VWF73,"[1]; 1 μM substrate, varying amounts of plasma or serum, optimal filters for each substrate",8 fold
same,assay sensitivity relative to FRETS-VWF73,[1]; equal concentrations of plasma as the enzyme source,approximately 8 fold
same,overall sensitivity relative to FRETS-VWF73,[1]; stronger fluorescence signal combined with undiluted plasma,~250 fold and 240 fold
same,further increase of sensitivity relative to FRETS-VWF73,[1]; use in undiluted plasma,30 fold
same,sensitivity of assay to conjugated bilirubin,[2],insensitive
